Patent publication US6461598B1, “Process for conditioning hair” (Biosil Research Institute Inc., priority 2000, dated 2002)

Experiment: Primary eye irritation, protocol FHSLA 16 CFR 1500.42
Format: in vivo
Details: products tested at 25% actives
Procedure: Eye irritation is a major concern in the formulation of personal care products, particularly when working with quats. Primary eye irritation using the protocol outlined in FHSLA 16 CFR 1500.42 The products were tested at 25% actives.

SMILES | Primary eye irritation rating | Primary eye irritation score
CCCCCCCCCCCCCCCC[N+](CC)(CC)CC.[Cl-] [Cetyltriethyl ammonium Chloride] | Severely Irritating | 115.0
CCCCCCCCCCCCCCCC[N+](C)(C)C.[Cl-] [Cetyltrimethyl ammonium Chloride] | Severely Irritating | 106.0
CCCCCCCCCCCCCCCCCC[N+](C)(C)Cc1ccccc1.[Cl-] [Stearalkonium Chloride] | Severely Irritating | 116.5
